Measured values published in patent US20040185109A1, “Method for incorporating cationic molecules into a substrate for increasing dispersibility of cationic molecules” (priority 2002, published 2004).

Experiment: Determination of useful cationic compounds: dye mixed with organoclay, clean clay, quat or alone in water, centrifuged, examined visually
Assay type: physicochemical
Conditions: for Ionic character (cationic or anionic) concluded from the visual results: conclusion from Test Tubes 1-4
From the text: At the outset of the method of the present invention, it must first be determined if a particular compound or molecule will be able to undergo the method of enhancing its dispersibility and thereby its cationic properties as disclosed herein. Thus, a determination must be made (for example, if the ionic character of a certain compound is unknown) whether or not the ion or molecule comprises an cationic portion that will ion exchange onto the surface of a substrate such as a clay or an organoclay. Thus, the molecule or ion can be tested in order to determine whether it has a cationic character (and thus can undergo the present method) or an anionic character or a neutral character. In testing certain molecules or ions, the procedure described below was employed.
Using Jarocol Straw Yellow dye as a representative example, four 1 mg samples of the dye were weighed and placed in 4 test tubes.
Subsequently, 10 mL of water were added to each of the four test tubes, and all of the samples were mixed well for 30 seconds. The samples from each of the test tubes were then centrifuged for 15 minutes in a laboratory scale centrifuge.
Next, the resulting centrifuged samples were examined and analyzed (by being compared to the control sample) to determine whether the Jarocol Straw Yellow dye reacted with the organoclay, the clean clay, or the quat, so that it could then be decided if Jarocol Straw Yellow dye has the requisite cationic character to ion exchange onto the surface of a clay and thereby have increased dispersibility in various application systems.
The analysis herein was performed visually, since the six samples tested were dyes. However, non-dye samples may be analyzed through infrared spectroscopy, differential scanning calorimetry (DSC), gas chromatography, UV spectroscopy, thermogravimetric analysis, or the like. For example, for a non-dye sample, the clay may be separated from the water, both parts may be taken to dryness, and the IR spectrum of each may be recorded.
Just as Jarocol Straw Yellow dye was tested using the four test tubes, the other five dye samples were similarly tested.

Row | SMILES | Ionic character (cationic or anionic) concluded from the visual results | Test Tube 3 (10 mg Quat) visual result (1 mg dye + 10 mg quat, 10 mL water, mixed 30 seconds, centrifuged 15 minutes) | Test Tube 4 (Control, sample only) visual result (1 mg dye only, 10 mL water, mixed 30 seconds, centrifuged 15 minutes)
1 | O=C([O-])c1ccccc1-c1c2cc(Br)c(=O)c(Br)c-2oc2c(Br)c([O-])c(Br)cc12.[Na+].[Na+] [D&C Red No. 22 dye] | exhibit anionic character to some extent | – | –
2 | CCN(Cc1cccc(S(=O)(=O)[O-])c1)c1ccc(C(=C2C=CC(=[N+](CC)Cc3cccc(S(=O)(=O)[O-])c3)C=C2)c2ccccc2S(=O)(=O)[O-])cc1.[Na+].[Na+] [FD&C Blue No. 1 dye] | exhibit anionic character to some extent | – | –
3 | O=C([O-])C1=NN(c2ccc(S(=O)(=O)[O-])cc2)C(=O)C1N=Nc1ccc(S(=O)(=O)[O-])cc1.[Na+].[Na+].[Na+] (stereo not shown) [FD&C Yellow No. 5 dye] | exhibit anionic character to some extent | – | –
4 | Cc1ccc(N=Nc2c([O-])c(C(=O)O)cc3ccccc23)c(S(=O)(=O)[O-])c1.[Na+].[Na+] [Lithol Rubine B] | anionic in nature | formed a highly insoluble reaction product with the quat | Water was red
5 | CN(C)c1ccc2nc3ccc(=[N+](C)C)cc-3sc2c1 [Methylene Blue, laboratory reagent dye, methylene blue] | have the requisite cationic character | – | –
